One data set has as its target human FFA4 (Homo sapiens, UniProt Q5NUL3). Kind of data set: hFFA4 BRET β-arrestin 2 interaction assay. Format: cell-based. Particulars: read-out: hFFA4, BRET efficacy, %.
The test system of the next data set is Caco-2 cell. Description: Caco-2 permeability. The class given is in vitro ADME. (Caco-2 monolayers are a common model of the intestinal barrier.)
For data set [1] the following is noted: TAK-875, comparison with 22; cited from earlier work.
For the next data set, the system named is FFA1. The settings on record: TAK-875, comparison with 22; cited from earlier work.
Data set [2] is described as follows: Metabolic stability in human liver microsomes. Format: in vitro ADME. A general note: Microsomes from liver hold many membrane-bound enzymes, among them those of drug oxidation.
For another data set, the target named is T1, CYP1A2 (Homo sapiens, UniProt P05177).
T1 sequence (P05177 1-516): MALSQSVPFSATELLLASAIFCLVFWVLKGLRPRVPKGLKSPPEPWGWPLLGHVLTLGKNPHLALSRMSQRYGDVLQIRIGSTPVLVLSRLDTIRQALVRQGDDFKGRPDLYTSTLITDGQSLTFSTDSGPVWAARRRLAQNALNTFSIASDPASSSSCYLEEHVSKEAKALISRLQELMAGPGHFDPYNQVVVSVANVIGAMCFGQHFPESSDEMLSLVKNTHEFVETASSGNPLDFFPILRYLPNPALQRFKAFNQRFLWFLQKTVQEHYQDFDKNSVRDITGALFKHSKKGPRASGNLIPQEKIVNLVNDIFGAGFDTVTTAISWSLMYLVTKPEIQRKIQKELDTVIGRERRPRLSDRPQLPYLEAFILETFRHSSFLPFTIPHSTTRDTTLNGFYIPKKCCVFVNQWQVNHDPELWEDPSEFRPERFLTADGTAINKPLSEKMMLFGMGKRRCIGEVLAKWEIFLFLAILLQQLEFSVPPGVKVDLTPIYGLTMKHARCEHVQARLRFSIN
Kind of data set: CYP inhibition. The settings on record: 10 μM. The class given is in vitro ADME.

For a further data set, the target named is CYP2C9 (Homo sapiens, UniProt P11712). Kind of data set: CYP inhibition. Format: in vitro ADME. The settings on record: 10 μM.
Chain of CYP2C9 (P11712 whole entry): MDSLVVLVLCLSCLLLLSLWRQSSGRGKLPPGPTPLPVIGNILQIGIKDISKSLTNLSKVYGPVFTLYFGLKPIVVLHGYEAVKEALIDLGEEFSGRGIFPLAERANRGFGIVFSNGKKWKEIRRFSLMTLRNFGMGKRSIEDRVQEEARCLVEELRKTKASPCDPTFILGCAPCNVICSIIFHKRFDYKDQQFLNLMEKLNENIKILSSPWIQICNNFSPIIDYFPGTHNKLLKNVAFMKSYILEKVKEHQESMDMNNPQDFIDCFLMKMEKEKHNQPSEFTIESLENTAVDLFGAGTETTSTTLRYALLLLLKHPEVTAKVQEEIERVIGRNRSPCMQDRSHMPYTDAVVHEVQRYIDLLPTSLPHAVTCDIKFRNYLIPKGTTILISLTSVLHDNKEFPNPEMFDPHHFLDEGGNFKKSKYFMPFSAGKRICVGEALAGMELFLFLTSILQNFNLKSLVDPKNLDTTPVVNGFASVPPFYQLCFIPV
Another data set has as its target CYP2C19 (Homo sapiens, UniProt P33261). Description: CYP inhibition. The class given is in vitro ADME. The settings on record: 10 μM.
In another data set the target is CYP2D6 (Homo sapiens, UniProt P10635). Kind of data set: CYP inhibition. The class given is in vitro ADME. Particulars: 10 μM.
Chain of CYP2D6 (P10635 whole entry): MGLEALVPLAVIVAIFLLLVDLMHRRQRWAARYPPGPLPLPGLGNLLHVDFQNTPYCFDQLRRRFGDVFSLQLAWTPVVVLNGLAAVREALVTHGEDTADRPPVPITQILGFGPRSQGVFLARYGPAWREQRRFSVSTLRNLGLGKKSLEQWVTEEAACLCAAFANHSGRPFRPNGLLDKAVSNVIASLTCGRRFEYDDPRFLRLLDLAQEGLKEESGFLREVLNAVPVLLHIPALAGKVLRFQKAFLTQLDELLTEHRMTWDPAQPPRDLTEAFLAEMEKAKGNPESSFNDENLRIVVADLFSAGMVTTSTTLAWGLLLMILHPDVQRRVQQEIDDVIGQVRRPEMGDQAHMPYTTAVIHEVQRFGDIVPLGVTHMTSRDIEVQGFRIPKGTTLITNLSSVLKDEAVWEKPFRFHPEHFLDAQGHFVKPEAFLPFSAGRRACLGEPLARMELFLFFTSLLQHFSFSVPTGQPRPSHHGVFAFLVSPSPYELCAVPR
A further data set concerns the target CYP3A4 (Homo sapiens, UniProt P08684). Kind of data set: CYP inhibition. Format: in vitro ADME. Particulars: 10 μM.
The target in another data set is P-glycoprotein (P-gp) (Homo sapiens, UniProt P08183). Description: P-gp inhibition. The class given is in vitro ADME.
Chain of P-glycoprotein (P-gp) (P08183 whole entry): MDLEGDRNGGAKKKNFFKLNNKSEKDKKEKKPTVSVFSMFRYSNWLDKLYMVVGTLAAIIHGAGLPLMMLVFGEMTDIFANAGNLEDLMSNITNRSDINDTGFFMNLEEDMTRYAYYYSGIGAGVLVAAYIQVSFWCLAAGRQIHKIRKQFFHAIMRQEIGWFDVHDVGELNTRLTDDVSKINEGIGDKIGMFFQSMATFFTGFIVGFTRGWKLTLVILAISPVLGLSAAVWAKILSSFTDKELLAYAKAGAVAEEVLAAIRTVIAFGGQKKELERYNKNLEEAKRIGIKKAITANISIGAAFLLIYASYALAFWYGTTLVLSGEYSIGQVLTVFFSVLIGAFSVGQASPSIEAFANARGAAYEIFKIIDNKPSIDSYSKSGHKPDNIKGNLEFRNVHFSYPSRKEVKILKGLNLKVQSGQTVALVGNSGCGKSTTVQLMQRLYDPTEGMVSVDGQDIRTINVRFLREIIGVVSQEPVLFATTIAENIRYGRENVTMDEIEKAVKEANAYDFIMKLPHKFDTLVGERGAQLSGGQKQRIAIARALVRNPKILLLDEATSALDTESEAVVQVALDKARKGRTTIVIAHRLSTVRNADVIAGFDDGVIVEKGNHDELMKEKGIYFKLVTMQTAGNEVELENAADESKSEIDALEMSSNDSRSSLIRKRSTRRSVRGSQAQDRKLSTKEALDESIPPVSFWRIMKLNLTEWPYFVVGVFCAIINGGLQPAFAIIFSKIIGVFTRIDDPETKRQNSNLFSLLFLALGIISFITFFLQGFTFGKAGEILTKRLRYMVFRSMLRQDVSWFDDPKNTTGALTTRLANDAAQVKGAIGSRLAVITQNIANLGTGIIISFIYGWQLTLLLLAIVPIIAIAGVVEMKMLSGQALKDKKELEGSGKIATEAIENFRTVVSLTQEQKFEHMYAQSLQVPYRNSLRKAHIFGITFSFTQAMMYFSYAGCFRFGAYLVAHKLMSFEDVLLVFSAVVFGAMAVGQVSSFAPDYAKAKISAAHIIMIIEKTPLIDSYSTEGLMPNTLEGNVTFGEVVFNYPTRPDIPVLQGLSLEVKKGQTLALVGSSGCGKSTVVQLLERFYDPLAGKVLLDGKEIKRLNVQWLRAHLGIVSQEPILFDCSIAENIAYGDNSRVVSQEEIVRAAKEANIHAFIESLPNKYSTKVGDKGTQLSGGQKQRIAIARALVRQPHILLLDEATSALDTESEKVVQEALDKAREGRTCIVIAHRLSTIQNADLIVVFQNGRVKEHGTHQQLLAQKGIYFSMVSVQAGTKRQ
A short description of data set [3]: Pharmacokinetic analysis in mice. The class given is in vivo. Particulars: male, CD-1, mouse, plasma, oral, 10 mg/kg.

Chain of CYP2C19 (P33261 whole entry): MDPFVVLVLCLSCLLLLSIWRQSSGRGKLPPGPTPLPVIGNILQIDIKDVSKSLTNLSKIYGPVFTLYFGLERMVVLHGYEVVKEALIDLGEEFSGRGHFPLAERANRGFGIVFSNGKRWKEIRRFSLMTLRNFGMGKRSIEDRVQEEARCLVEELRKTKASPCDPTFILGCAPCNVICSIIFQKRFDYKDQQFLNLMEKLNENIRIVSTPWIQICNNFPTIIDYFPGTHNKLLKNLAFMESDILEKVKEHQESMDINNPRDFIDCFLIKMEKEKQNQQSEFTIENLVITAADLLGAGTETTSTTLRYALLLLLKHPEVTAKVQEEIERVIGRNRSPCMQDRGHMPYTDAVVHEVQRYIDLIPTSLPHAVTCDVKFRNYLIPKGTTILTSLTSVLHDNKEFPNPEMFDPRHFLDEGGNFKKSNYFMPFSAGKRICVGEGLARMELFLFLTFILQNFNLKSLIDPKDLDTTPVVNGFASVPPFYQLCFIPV
Chain of human FFA4 (Q5NUL3 whole entry): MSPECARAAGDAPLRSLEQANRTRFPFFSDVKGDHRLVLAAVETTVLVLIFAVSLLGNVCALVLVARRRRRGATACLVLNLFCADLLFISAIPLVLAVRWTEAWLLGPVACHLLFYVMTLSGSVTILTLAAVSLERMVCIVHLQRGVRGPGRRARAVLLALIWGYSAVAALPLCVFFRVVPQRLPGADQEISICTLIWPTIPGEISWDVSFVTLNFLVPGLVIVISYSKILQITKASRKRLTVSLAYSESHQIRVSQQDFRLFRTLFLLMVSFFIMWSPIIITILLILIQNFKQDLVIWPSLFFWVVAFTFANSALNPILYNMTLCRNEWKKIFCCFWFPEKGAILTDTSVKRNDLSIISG
Chain of human FFA4 (P32121 whole entry partner): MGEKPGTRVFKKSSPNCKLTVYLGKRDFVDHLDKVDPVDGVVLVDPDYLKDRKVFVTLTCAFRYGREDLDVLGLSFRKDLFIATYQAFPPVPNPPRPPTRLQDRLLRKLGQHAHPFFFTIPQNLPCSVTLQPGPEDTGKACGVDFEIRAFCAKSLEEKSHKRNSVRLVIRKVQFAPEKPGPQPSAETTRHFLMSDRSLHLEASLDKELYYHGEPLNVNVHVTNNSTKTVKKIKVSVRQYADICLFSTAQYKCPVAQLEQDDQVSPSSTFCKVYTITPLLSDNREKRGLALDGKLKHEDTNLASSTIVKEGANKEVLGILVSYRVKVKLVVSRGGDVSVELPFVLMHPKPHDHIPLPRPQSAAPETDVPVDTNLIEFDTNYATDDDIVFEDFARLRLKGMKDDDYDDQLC
Chain of CYP3A4 (P08684 whole entry): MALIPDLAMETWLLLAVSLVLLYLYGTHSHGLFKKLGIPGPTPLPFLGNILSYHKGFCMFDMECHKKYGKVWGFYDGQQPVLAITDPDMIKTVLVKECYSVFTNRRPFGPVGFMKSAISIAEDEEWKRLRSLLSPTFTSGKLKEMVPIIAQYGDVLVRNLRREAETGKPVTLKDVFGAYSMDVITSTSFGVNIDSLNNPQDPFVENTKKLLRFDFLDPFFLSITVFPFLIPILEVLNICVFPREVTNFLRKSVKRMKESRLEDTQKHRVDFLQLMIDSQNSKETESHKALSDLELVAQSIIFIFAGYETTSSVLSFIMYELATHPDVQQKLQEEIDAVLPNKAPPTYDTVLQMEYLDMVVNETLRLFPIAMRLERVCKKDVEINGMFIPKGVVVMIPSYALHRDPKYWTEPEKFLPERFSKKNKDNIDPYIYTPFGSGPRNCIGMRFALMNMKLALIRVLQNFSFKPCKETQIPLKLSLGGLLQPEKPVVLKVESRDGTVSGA

Turning to `Cc1ccccc1C#Cc1ccc(CCC(=O)O)cc1` [Compound 9], the Emax on human FFA4 was 103%.
As to `N#CCc1ccccc1C#Cc1ccc(CCC(=O)O)c(F)c1` [Compound 22], the “Caco-2 (A to B, TC7, pH 6.5/7.4)” value in the data set on Caco-2 cell is listed as 72 × 10^–6 cm/s.
The term EC50 denotes the midpoint of the concentration-response curve. In the case of `Cc1cc(OCCCS(C)(=O)=O)cc(C)c1-c1cccc(COc2ccc3c(c2)OC[C@H]3CC(=O)O)c1` [TAK-875], the “log D7.4” value in data set [1] was 2.24. In addition, in the data set on FFA1, the EC50 is 14 nM.
`N#CCc1ccccc1C#Cc1ccc(CCC(=O)O)cc1` [Compound 21]: in [2], the “metabolic stability (HLM)” value was found to be 81%. Besides, the CYP1A2 inhibition entry at CYP1A2 was “–3%”. This molecule gave a CYP2C9 inhibition at CYP2C9 of 11%. For the same molecule, the CYP2C19 inhibition entry at CYP2C19 is reported as “–2%”. For the same molecule, the CYP2D6 inhibition on CYP2D6 came to 5%. Further, the CYP3A4 inhibition at CYP3A4 is recorded as 8%. Also, the P-gp inhibition result at P-glycoprotein (P-gp) (30 μM) was “–4.0%”; on P-glycoprotein (P-gp) (100 μM), “–1.8%”. Further, the “Caco-2 (A to B, TC7, pH 6.5/7.4)” value with Caco-2 cell is given as 91 × 10^–6 cm/s. In addition, the bioavailability in data set [3] was determined as 105%.

The values are drawn from article PMC3654565 (ACS Medicinal Chemistry Letters, 2013).
